Experimental data: US6495683B2, “4-oxo-4,7-dihydro-thieno[2,3-b]pyridine-5-carboxamides as antiviral agents” (Pharmacia and Upjohn Company, priority 1999, dated 2002)
Read-outs that look alike come from different tables or passages of the source.

Legend:
HSV polymerase = HSV polymerase (Human herpesvirus 1, UniProt P04293); experiment: biochemical; settings: read-out: polymerase IC50 (μM) HSV
HCMV polymerase = molecular target: T1, HCMV polymerase (Human cytomegalovirus, UniProt P08546); experiment: biochemical; settings: modified SPA assay: compounds diluted in 100% DMSO, 4.5 mM DTT in polymerase buffer; read-out: polymerase IC50 (μM) HCMV
T1 construct: made in house; host or cells: recombinant baculovirus-infected SF-9 cells
T1 sequence (P08546 whole entry): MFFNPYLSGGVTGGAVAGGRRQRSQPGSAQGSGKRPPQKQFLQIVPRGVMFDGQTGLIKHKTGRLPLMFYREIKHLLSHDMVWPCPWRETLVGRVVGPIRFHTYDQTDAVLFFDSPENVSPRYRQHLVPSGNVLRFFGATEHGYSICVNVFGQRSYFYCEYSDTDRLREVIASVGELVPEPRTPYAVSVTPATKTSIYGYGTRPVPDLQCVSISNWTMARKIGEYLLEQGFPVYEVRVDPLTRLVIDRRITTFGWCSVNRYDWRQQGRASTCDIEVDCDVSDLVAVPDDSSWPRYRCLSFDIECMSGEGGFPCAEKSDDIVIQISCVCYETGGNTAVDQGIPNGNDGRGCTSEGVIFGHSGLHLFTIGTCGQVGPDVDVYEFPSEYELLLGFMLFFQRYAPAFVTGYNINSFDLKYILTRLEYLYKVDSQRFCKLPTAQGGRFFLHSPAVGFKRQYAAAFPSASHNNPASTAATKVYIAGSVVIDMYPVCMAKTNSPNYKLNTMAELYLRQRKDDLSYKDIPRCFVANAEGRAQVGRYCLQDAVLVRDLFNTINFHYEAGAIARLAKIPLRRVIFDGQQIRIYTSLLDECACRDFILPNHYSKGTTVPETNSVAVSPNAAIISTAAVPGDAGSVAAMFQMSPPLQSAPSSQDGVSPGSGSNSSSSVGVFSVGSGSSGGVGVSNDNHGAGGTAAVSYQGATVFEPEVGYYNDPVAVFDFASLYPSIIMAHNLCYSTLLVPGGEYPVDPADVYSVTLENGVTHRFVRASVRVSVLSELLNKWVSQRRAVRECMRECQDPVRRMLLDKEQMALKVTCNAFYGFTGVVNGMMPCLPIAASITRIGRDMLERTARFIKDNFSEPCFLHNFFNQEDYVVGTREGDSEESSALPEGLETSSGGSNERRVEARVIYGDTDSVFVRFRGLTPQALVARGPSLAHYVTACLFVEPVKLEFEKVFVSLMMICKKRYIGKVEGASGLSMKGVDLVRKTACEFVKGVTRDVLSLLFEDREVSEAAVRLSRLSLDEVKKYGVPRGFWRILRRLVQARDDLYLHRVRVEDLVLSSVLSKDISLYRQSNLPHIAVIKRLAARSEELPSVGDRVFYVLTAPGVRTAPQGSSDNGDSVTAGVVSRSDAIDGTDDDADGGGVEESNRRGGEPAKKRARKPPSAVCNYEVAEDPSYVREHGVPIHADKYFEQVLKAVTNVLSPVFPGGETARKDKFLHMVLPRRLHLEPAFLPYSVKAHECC
Method: The HCMV polymerase assay is performed using a scintillation proximity assay (SPA) as described in several references, such as N. D. Cook, et al., Pharmaceutical Manufacturing International, pages 49-53 (1992); K. Takeuchi, Laboratory Practice, September issue (1992); U.S. Pat. No. 4,568,649 (1986); which are incorporated by reference herein. Reactions are performed in 96-well plates. The assay is conducted in 100 μl volume with 5.4 mM HEPE (pH 7.5), 11.7 mM KCl, 4.5 mM MgCl2, 0.36 mg/ml BSA, and 90 nM ^3H-dTTP. Assays are run with and without CHAPS, (3-[(3-cholamidopropyl)-dimethylammonio]-1-propane-sulfonate) at a final concentration of 2 mM. HCMV polymerase is diluted in enzyme dilution buffer containing 50% glycerol, 250 mM NaCl, 10 mM HEPES (pH 7.5), 100 μg/ml BSA, and 0.01% sodium azide. The HCMV polymerase, which is expressed in recombinant baculovirus-infected SF-9 cells and purified according to literature procedures, is added at 10% (or 10 μl) of the final reaction volume, i.e., 100 μl. Compounds are diluted in 50% DMSO and 10 μl are added to each well. Control wells contain an equivalent concentration of DMSO. Unless noted otherwise, reactions are initiated via the addition of 6 nM biotinylated poly(dA)-oligo(dT) template/primer to reaction mixtures containing the enzyme, substrate, and compounds of interest. Plates are incubated in a 25 C or 37 C H2O bath and terminated via the addition of 40 μl/reaction of 0.5 M EDTA (pH 8) per well. Reactions are terminated within the time-frame during which substrate incorporation is linear and varied depending upon the enzyme and conditions used, i.e., 30 min. for HCMV polymerase. Ten μl of streptavidin-SPA beads (20 mg/ml in PBS/10% glycerol) are added following termination of the reaction. Plates are incubated 10 min. at 37 ° C., then equilibrated to room temperature, and counted on a Packard Topcount. Linear regressions are performed and IC50's are calculated using computer software.
A modified version of the above HCMV polymerase assay is performed as described above, but with the following changes: Compounds are diluted in 100% DMSO until final dilution into assay buffer. In the previous assay, compounds are diluted in 50% DMSO. 4.5 mM dithiothreotol (DTT) is added to the polymerase buffer.

VZV polymerase = VZV polymerase (Varicella-zoster virus, UniProt P09252); experiment: biochemical
VZV polymerase, sequence (P09252 whole entry): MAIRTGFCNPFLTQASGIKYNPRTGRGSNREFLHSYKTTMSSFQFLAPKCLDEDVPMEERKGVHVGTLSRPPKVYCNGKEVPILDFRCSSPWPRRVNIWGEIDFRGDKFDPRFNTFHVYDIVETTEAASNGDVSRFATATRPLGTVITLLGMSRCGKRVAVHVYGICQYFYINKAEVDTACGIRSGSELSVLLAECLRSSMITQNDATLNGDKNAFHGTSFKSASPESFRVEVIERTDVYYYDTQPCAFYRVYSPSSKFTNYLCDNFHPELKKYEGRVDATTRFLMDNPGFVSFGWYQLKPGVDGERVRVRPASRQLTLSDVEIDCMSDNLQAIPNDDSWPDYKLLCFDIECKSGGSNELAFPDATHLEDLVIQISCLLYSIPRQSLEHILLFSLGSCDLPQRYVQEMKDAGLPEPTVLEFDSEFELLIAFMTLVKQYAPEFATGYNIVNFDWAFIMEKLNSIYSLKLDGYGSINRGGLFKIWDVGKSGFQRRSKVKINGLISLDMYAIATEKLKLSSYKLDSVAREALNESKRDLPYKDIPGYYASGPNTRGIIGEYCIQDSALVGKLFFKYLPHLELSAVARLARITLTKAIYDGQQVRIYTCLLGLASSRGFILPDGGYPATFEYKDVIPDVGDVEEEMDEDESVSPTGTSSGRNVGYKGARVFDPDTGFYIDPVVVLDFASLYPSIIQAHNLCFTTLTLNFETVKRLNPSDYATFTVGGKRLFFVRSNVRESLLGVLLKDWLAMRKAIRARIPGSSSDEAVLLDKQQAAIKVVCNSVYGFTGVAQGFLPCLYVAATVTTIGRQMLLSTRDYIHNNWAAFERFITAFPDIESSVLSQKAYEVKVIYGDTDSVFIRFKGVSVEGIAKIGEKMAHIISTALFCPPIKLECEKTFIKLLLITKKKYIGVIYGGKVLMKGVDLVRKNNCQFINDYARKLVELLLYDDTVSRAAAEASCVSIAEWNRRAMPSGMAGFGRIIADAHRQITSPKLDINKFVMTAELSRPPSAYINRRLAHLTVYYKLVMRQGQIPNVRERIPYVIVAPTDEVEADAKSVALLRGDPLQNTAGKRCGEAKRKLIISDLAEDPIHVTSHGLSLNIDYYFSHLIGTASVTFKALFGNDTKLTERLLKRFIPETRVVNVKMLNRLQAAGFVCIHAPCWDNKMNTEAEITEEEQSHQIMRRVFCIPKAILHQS

[1] = read-out: polymerase IC50 (μM) VZV

HSV polymerase, sequence (P04293 whole entry): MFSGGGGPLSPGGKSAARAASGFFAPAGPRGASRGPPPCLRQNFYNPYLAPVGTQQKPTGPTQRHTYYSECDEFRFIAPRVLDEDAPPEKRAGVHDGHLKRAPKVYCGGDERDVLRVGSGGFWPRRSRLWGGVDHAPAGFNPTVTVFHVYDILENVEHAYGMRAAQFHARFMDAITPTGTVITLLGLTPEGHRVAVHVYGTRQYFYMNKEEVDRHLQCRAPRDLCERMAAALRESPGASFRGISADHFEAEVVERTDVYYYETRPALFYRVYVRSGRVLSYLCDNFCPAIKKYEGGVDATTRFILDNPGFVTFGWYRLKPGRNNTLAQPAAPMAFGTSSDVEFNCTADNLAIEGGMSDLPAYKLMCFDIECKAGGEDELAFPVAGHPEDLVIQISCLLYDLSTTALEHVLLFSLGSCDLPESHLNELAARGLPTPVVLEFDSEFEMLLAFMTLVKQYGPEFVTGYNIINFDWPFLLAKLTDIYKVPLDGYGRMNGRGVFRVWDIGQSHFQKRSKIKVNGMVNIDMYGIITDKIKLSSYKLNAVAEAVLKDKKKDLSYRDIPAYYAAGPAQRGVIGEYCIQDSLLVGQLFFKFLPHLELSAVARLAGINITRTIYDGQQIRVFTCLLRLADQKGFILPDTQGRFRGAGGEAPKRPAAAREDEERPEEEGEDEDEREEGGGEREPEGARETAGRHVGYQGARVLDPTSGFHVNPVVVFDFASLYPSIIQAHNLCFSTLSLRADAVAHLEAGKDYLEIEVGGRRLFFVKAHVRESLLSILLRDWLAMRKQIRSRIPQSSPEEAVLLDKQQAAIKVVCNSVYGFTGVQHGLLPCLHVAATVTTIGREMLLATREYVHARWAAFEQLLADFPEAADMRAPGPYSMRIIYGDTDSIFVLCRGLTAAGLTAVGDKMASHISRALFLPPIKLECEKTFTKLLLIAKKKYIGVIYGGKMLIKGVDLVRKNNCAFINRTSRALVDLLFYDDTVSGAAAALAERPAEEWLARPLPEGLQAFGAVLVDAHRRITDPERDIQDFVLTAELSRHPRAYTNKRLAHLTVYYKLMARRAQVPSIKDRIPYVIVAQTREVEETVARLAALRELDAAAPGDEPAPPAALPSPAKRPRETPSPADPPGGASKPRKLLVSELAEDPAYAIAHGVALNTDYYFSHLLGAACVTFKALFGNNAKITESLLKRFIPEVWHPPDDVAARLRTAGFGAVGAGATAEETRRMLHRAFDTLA

Row | Compound | IC50 (HSV polymerase) | IC50 (HCMV polymerase) | IC50 (VZV polymerase; [1]) | melting point | IC50 (VZV polymerase)
1 | Cn1cc(C(=O)NCc2ccc(Cl)cc2)c(=O)c2cc(CCCO)sc21 [Example 25, N-(4-Chlorobenzyl)-2-(3-hydroxypropyl)-7-methyl4-oxo-4,7-7dihydrothieno[2,3-b]pyridine-5-carboxamide] | 0.45 µM | 0.4 µM |  |  | 0.46 µM
2 | O=C(NCc1ccc(Cl)cc1)c1cnc2sc(Br)cc2c1O [Example 4, 2-Bromo-N-(4-chlorobenzyl)-4-hydroxythieno[2,3-b]pyridine-5-carboxamide] |  | 10.8 µM |  | 234 to 236 °C | 
3 | O=C(NCc1ccc(Cl)cc1)c1cn(Cc2cccc(F)c2)c2sc(CN3CCOCC3)cc2c1=O [Example 50, N-(4-Chlorobenzyl)-7-(3-fluorobenzyl)-2-(4-morpholinyl-methyl)-4-oxof47-dihydrothieno[2,3-b]pyridine-5-carboxamide] |  | 3.8 µM |  | 214 to 215 °C | 
4 | CC(C)n1cc(C(=O)NCc2ccc(Cl)cc2)c(=O)c2cc(C#CCO)sc21 [Example 27, N-(4-Chlorobenzyl)-2-(3-hydroxy-1-propynyl)-7-isopropyl-4-oxo-4,7-dihydrothieno[2,3-b]pyridine-5-carboxamide] |  | 4.2 µM |  | 190 to 196 °C | 
5 | CCn1cc(C(=O)NCc2ccc(Cl)cc2)c(=O)c2cc(C#CCOC(=O)CN3CCOCC3)sc21 [Example 30, 3-(5-{[(4-Chlorobenzyl)amino]carbonyl}-7-ethyl-4-oxo-4,7-dihydrothieno[2,3-b]pyridin-2-yl)-2-propynyl 2-(4-Morpholinyl)acetate] |  | 28.2 µM |  | 168 to 170 °C | 
6 | Cn1cc(C(=O)NCc2ccc(Cl)cc2)c(=O)c2cc(C(=O)N3CCOCC3)sc21 [Example 48, N-(4-Chlorobenzyl)-7-methyl-2-(4-morpholinyl-carbonyl)-4 dothieno[2,3-b]pyridine-5-carboxamide] |  | 19 µM |  | 244 to 245 °C (dec.) | 
7 | O=C(NCc1ccc(Cl)cc1)c1cnc2sc(C#CCCO)cc2c1O [Example 7, N-(4-Chlorobenzyl)-4-hydroxy-2-(4-hydroxy-1-butynyl)thieno[2,3-b]pyridine-5-carboxamide] |  | 8 µM |  | 242 to 246 °C | 
8 | O=C(NCc1ccc(Cl)cc1)c1cn(CCN2CCCC2)c2sc(CN3CCOCC3)cc2c1=O [Example 53, N-(4-Chlorobenzyl)-2-(4-morpholinylmethyl)-4-oxo-7-[2-(1-pyrrolidinyl)ethyl]-4,7-dihydrothieno[2,3-b]pyridine-5-carboxamide] |  | 4 µM |  | 178 to 180 °C | 
9 | CCn1cc(C(=O)NCc2ccc(Cl)cc2)c(=O)c2ccsc21 [Example 12, N-(4-Chlorobenzyl)-7-ethyl-4-oxo-4,7-dihydrothieno[2,3-b]pyridine-5-carboxamide] |  | 11 µM |  | 183 to 184 °C | 
10 | CCn1cc(C(=O)NCc2ccc(Cl)cc2)c(=O)c2cc(C#CCCO)sc21 [Example 15, N-(4-Chlorobenzyl)-7-ethyl-2-(4-hydroxy-1-butynyl)-4-oxo-4,7-dihydrothieno[2,3-b]pyridine-5-carboxamide] | 3.2 µM | 4.7 µM | 1.9 µM |  | 
11 | CCn1cc(C(=O)NCc2ccc(Cl)cc2)c(=O)c2cc(Br)sc21 [Example 11, 2-Bromo-N-(4-chlorobenzyl)-7-ethyl-4-oxo-4,7-dihydrothieno[2,3-b]pyridine-5-carboxamide] |  | 18.8 µM |  | 196 to 197 °C | 
12 | O=C(NCc1ccc(Cl)cc1)c1cnc2sc(C(=O)N3CCOCC3)cc2c1O [Example 47, N-(4-Chlorobenzyl)-4-hydroxy-2-(4-morpholinyl-carbonyl)-thieno[2,3-b]pyridine-5-carboxamide] |  | > 20 µM |  | 217 to 219 °C | 
13 | O=C(NCc1ccc(Cl)cc1)c1cnc2sccc2c1O [Example 1, N-(4-Chlorobenzyl)-4-hydroxythieno[2,3-b]pyridine-5-carboxamide] |  | 28.9 µM |  | 238 to 240 °C | 
14 | O=C(NCc1ccc(Cl)cc1)c1cn(Cc2ccncc2)c2sc(CN3CCOCC3)cc2c1=O [Example 55, N-(4-Chlorobenzyl)-2-(4-morpholinylmethyl)-4-oxo-7-(4-pyridinylmethyl)-4,7-dihydrothieno[2,3-b]pyridine-5-carboxamide] |  | 5 µM |  | 208 to 210 °C (dec.) | 
15 | Cn1cc(C(=O)NCc2ccc(Br)cc2)c(=O)c2cc(CN3CCOCC3)sc21 [Example 46, N-(4-Bromobenzyl)-7-methyl-2-(4-morpholinylmethyl)-4-oxo-4,7-dihydrothieno[2,3-b]pyridine-5-carboxamide] |  | 3.8 µM |  | 245 to 246 °C | 
16 | O=C(NCc1ccc(Cl)cc1)c1cnc2sc(CO)cc2c1O [Example 34, N-(4-Chlorobenzyl)-4-hydroxy-2-(hydroxymethyl)thieno[2,3-b]pyridine-5-carboxamide] |  | > 20 µM |  | 205 to 210 °C | 

Further lines, with some results ahead:

Row | IC50 (HSV polymerase) | IC50 (HCMV polymerase) | IC50 (VZV polymerase; [1]) | melting point | Compound | IC50 (VZV polymerase)
17 | 0.89 µM | 0.92 µM | 0.28 µM |  | O=C(NCc1ccc(Cl)cc1)c1cn(CCO)c2sc(C#CCO)cc2c1=O [Example 17, N-(4-Chlorobenzyl)-7-(2-hydroxyethyl)-2-(3-hydroxy-1-5 propynyl)-4-oxo-4,7-dihydrothieno[2,3-b]pyridine-5-carboxamide] | 
18 |  | < 0.31 µM |  | 184 to 187 °C | CN(Cc1cc2c(=O)c(C(=O)NCc3ccc(Cl)cc3)cn(C)c2s1)CC(O)c1ccccc1 (stereo not shown) [Example 40, N-(4-Chlorobenzyl)-2-(((2-hydroxy-2-phenylethyl)(methyl)-amino)methyl)-7-methyl-4-oxo-4,7-dihydrothieno[2,3-b]pyridine-5-carboxamide] | 
19 |  | 1.2 µM |  | 169 to 171 °C | O=C(NCc1ccc(Cl)cc1)c1cn(CCCc2ccccc2)c2sc(CN3CCOCC3)cc2c1=O [Example 51, N-(4-Chlorobenzyl)-2-(4-morpholinylmethyl)-4-oxo-7-(3-phenylpropyl)-4,7-dihydrothieno[2,3-b]pyridine-5-carboxamide] | 
20 |  | 0.81 µM |  | 111 to 114 °C | CCN(CC)CCn1cc(C(=O)NCc2ccc(Cl)cc2)c(=O)c2cc(CCCO)sc21 [Example 22, N-(4-Chlorobenzyl)-7-[2-(diethylamino)ethyl]-2-(3-hydroxypropyl)4-oxo4,7-dihydrothieno[2,3-b]pyridine-5-carboxamide Hydrorhloride] | 
21 |  | < 0.78 µM |  | 174 to 178 °C | O=C(NCc1ccc(Cl)cc1)c1cn(CCO)c2sc(CCCO)cc2c1=O [Example 21, N-(4-Chlorobenzyl)-7-(2-hydroxyethyl)-2-(3-hydroxypropyl)4-oxo-4,7-dihydrothieno[2,3-b]pyridine-5-carboxamide] | 
22 |  | 1.5 µM |  | 191 to 195 °C | O=C(NCc1ccc(Cl)cc1)c1cn(CC2CCCO2)c2sc(CN3CCOCC3)cc2c1=O (stereo not shown) [Example 52] | 
23 |  | 2.6 µM |  | 215 to 218 °C (dec.) | Cn1cc(C(=O)NCc2ccc(Cl)cc2)c(=O)c2cc(CN3CCSCC3)sc21 [Example 38, N-(4-Chlorobenzyl)-7-methyl-4-oxo-2-(4-thiomorpholinyl-methyl)-4,7-dihydrothieno[2,3-b]pyridine-5-carboxamide] | 
24 |  | 1.8 µM |  | 217 to 219 °C | CCn1cc(C(=O)NCc2ccc(Cl)cc2)c(=O)c2cc(C#CCO)sc21 [Example 14, N-(4-Chlorobenzyl)-7-ethyl-2-(3-hydroxy-1-propynyl)-4-oxo4,7-dihydrothieno[2,3-b]pyridine-5-carboxamide] | 
25 |  | 1.9 µM |  | 174 to 176 °C | CCCn1cc(C(=O)NCc2ccc(Cl)cc2)c(=O)c2cc(CN3CCOCC3)sc21 [Example 43, N-(4-Chlorobenzyl)-2-(4-morpholinylmethyl)-4-oxo-7-propyl-4,7dihydrothieno[2,3-b]pyridine-5-carboxamide] | 
26 |  | 1.9 µM |  | 194 to 196 °C | CCn1cc(C(=O)NCc2ccc(Cl)cc2)c(=O)c2cc(CN3CCOCC3)sc21 [Example 42, N-(4-Chlorobenzyl)-7-ethyl-2-(4-morpholinylmethyl)-4-oxo-4,7-dihydrothieno[2,3-b]pyridine-5-carboxamide] | 
